According to patent US6743436B1, “Anesthetic composition for intravenous injection comprising propofol” (Kuhnil Pharm. Co., Ltd., priority 1999, dated 2004):

What was measured:
albino rat = assay: Experiment 7: hemolysis after intravenous injection; type: in vivo; conditions: for Af (absorbance of released hemoglobin at 540 nm) / Hemolysis: i.v. over one minute, arterial blood
Protocol: To determine the hemolysis of the formulation of Example 6, albino rat was incised with scissor at the upper part of left femoral region, at which each of vein and artery was cannulated, and then 10 mg/kg of the formulated drug was intravenously injected over one minute. After 0, 5, 10, 15, 30, 45 and 60 minutes, blood was collected from femoral artery in an amount of 100 μl each time. Blood was obtained after heparin-physiological saline and some blood filled in the catheter were removed few, seconds before collecting blood each time. After blood was collected, a small amount of heparin-physiological saline was introduced into the catheter connecting tube to prevent blood coagulation. 100 μl of the collected blood were mixed with 500 μl of physiological saline and then centrifuged with 3000 rpm for 10 minutes. 100 μl of the supernatant were transferred into microplate and the absorbance of released hemoglobin was measured at 540 nm. Hemolysis (%) was calculated according to the following equation. The control group used 70% propylene glycol (PG) solution.
In the above equation, A100 is the absorbance at the time of 100% hemolysis (100 μl of blood was mixed with 500 μl of water); A0 is the absorbance at the time of 0% hemolysis as the blank (Before injection of the drug, normal blood was mixed with 500 μl of physiological saline for the blank test), and Af is the absorbance of each specimen.

[1] = background statement; cited from earlier work

## CC(O)CO (stereo not drawn) [70% PG, propylene glycol]
Albino rat; 5 min.
  Af (absorbance of released hemoglobin at 540 nm): 0.086
  Hemolysis: 1.94%
Albino rat; 10 min.
  Af (absorbance of released hemoglobin at 540 nm): 0.091
  Hemolysis: 2.06%
Albino rat; 15 min.
  Af (absorbance of released hemoglobin at 540 nm): 0.067
  Hemolysis: 1.47%
Albino rat; 30 min.
  Af (absorbance of released hemoglobin at 540 nm): 0.038
  Hemolysis: 0.76%
Albino rat; 45 min.
  Af (absorbance of released hemoglobin at 540 nm): 0.047
  Hemolysis: 0.98%
Albino rat; 60 min.
  Af (absorbance of released hemoglobin at 540 nm): 0.041
  Hemolysis: 0.84%
Albino rat; initial
  Af (absorbance of released hemoglobin at 540 nm): 0.081
  Hemolysis: 1.82%
Albino rat; i.v., 0-60 min
  absorbance relative to the formulation of Example 6: 80-90 times
  hemolysis (in words): causes hemolysis

## CC(C)c1cccc(C(C)C)c1O [propofol, 2,6-diisopropylphenol]
[1]
  octanol water partition coefficient: 4.33
  pKa: 10.4
